Test results published in patent US20220047687A1, “CHEMICAL SCALPEL” (FUNDACIÓN INSTITUTO DE INVESTIGACIÓN SANITARIA FUNDACIÓN …, priority 2019, published 2022).
“Also recorded” adds a separate entry of the source.

Assays:
[1] = test system: peritoneal carcinomatosis (DHD cells); assay: Survival and necropsy of rats with carcinomatosis after peritoneal washing (groups D, E, F); format: in vivo, rat; details: group F, collagenase 37 U/ml, 3 animals
Protocol: (§1) The procedure was performed 2 times in the TCQ group, the first time with collagenase and after 2 minutes peritoneal washing with mitomycin C at the different concentrations to be tested was repeated. […] Blood was also collected from all the animals before sacrificing them, the blood was processed within the hour following its extraction to obtain plasma and to analyze, on one hand, the existence of the mutated KRAS oncogene (mutation in codon 12 of exon 1 expressed by DHD cells), and on the other hand the existence of collagenase traces or residues in blood after the peritoneal washes. A digital PCR was used for the KRAS oncogene localization study. For the collagenase trace study, the anonymized samples were sent to Lyposmol laboratories for the performance of specific anti-MMP-1 and anti-MMP-2 ELISAS.
Each group initially consisted of 6 rats (2×3).

peritoneal tissues = assay: Safety, histology and biochemistry in the adhesion model
Protocol: The concentration of collagenase used was 0.05% in PBS, with an application time of 20 min, in a volume of 20 ml, and at a temperature of 37° C. in a thermal blanket and with prior tempering of the drug.
Blood was drawn from all the rats by intracardiac puncture for biochemistry and cytokines.

MMP-2 = assay: ELISA for collagenase residues in blood, anti-MMP-2; format: in vivo, rat; details: after treatment and the follow-up period, all animals
Protocol: as §1

[2] = test system: tissue originating from patients with peritoneal carcinomatosis; assay: In vitro collagenase treatment of patient tumor tissue fragments; format: cell-based, human; details: for cells released from tissues: culture at 96 hours
Protocol: After obtaining authorization from the Committee for Research with Medicinal Products (PIC 75/2016_FJD) of Fundación Jiménez Díaz, the tissue originating from patients with peritoneal carcinomatosis who signed the consent was collected. Tissue fragments were included in multiwell plates and treated with 35 U/mL of collagenase for 30 minutes or for a period of 24 hrs, the cultures were then washed and cells obtained from the enzyme treatment were analyzed. The idea was to check at different times if mesothelial cells were obtained alone or tumor cells were obtained as well. FIG. 1.

[3] = test system: peritoneal carcinomatosis (DHD cells); assay: Adjusting the dose of collagenase as co-adjuvant in rats with carcinomatosis; format: in vivo, rat; details: 10 minutes, 37° C.
Protocol: In this sense, after the inoculation of DHD cells in all the animals, and therefore the induction of solid tumors in the peritoneum (peritoneal carcinomatosis), the optimum dose of collagenase in terms of safety for use thereof as a co-adjuvant for or enhancer of chemotherapy treatment with mitomycin C in various work groups was determined: • Control group: washed only with Ringer's lactate. The mesoderm readily separates and washing is non-hematic. Compact omentum. • Group 1: 370 U/mL of collagenase. Hematic washing liquid, destruction of the omentum and mesoderm. Tumor fragments in the washing liquid. • Group 2: 148 U/mL of collagenase. Slightly hematic washing liquid, readily separable omentum and mesoderm. Solid tumor fragments are observed in the washing liquid. • Group 3: 74 U/mL of collagenase. Non-hematic washing liquid, readily separable omentum and mesoderm. Few implants are observed in the washing liquid but the accessibility of the tumor implants in the mesoderm and omentum is absolute. • Group 4: 37 U/mL of collagenase. Non-hematic washing liquid, readily separable omentum and mesoderm. No tumor implants observed in the washing liquid, but they are seen to be completely exposed in both the mesoderm and omentum.
The surgical procedures during this phase consisted of a first method of peritoneal cancer induction in which DHD cells were injected into the peritoneum and 6-8 weeks were allowed to elapse until the checking for the existence of tumor masses in the peritoneum by means of abdominal palpation, and a second method of treatment in which, after giving the animals inhalation anesthesia, the abdominal cavity was exposed by means of a longitudinal incision of the abdomen, the peritoneal cavity filled with the collagenase solution at the different concentrations to be tested at 37° C.

cytokines and chemokines = assay: Cytokines circulating in plasma after collagenase washing; format: in vivo, rat
Protocol: A new blood test was performed with the 10 rats in the 1st group. For each of them, blood was taken 15 days after surgery. Post-collagenase cytokines were analyzed.
A new blood test is performed on the 6 rats in the 2nd group on 26/07/2018 and on the 4 controls.
Post-collagenase cytokines are analyzed

MMP-1 = assay: ELISA for collagenase residues in blood, anti-MMP-1; format: in vivo, rat; details: after treatment and the follow-up period, all animals
Protocol: as §1

[4] = test system: peritoneal adhesions (polypropylene mesh); assay: Peritoneal adhesion model group 2 (4 large meshes): adhesion tear test; format: in vivo, rat; details: group 2, blind study, 0.05%; PBS control 325.76
Protocol: About one month later, intervention is performed on 6 additional 6-week old Wistar rats belonging to a second group (Group II). After inhalation anesthesia with Forane, the animal being shaved, and aseptic measures being implemented, laparotomy is performed with the implantation of 4 polypropylene meshes in the abdominal cavity, 2 on each side of the midline. Prior to implantation, the mesh is wetted with pss.
Secondly, experiments were performed on the rats belonging to group 2. The rats in this group were operated on, divided into two groups with 3 rats each, where a first group received 0.05% collagenase and the other placebo (PBS). After that they were subjected to an adhesion tear test, measuring the maximum pressure and the curve at which the adhesion tore. To that end, an adhesion tear measurement system was used which consisted of a high-precision digital pressure gauge that measured the pressure of a closed and rigid system with three outlets. One was a manual pressure pump, the other one was a piston with linear mobility to which clamps for pulling are fitted and which takes pressure away from the pressure gauge. The pressure needed to cause the tear of the adhesions generated in the collagenase group vs. control group was measured with this system.

Collagenase
Observations (necropsy) ([1]; 1 month): Localized carcinomatoses in intestine; also recorded: No adhesions | Observations (necropsy) ([1]; 2 months): Localized carcinomatoses in abdomen; also recorded: with nodules in liver. No adhesions | release of adhesions (final conclusion) (peritoneal tissues; 37 mg/Kg for 20 minutes at 37° C. as a peritoneal washing, murine model): favors the release of adhesions | other relevant finding upon application of the treatment (peritoneal tissues; 0.05% in PBS, 20 min, 20 ml, 37° C.): pancreatic reaction | safety of intraperitoneal application (peritoneal tissues; 0.05%, vigorous washing at 37° C. for 20 minutes, murine model): safe for intraperitoneal application in a murine model, without associated mortality | analysis of the models at euthanasia, drug vs PBS (peritoneal tissues; 2 months after the use of drug or PBS): did not show any significant differences; also recorded: fewer adhesions did subjectively appear | histological study of tissues (peritoneal tissues; animals with small or large meshes, peritoneal washing with collagenase): are not affected | amylase (peritoneal tissues; both study groups): increases in both study groups | biochemical or hematologic parameters (peritoneal tissues; serial tests, immediately and at different points of control after the intervention): without finding significant differences with the control groups | collagenase residues in blood, MMP-2 ELISA (MMP-2): negative | effect of collagenase on tumor tissues in vitro ([2]; 35 U/mL): breaks the edges of the tissues, releasing mesothelial cells and limiting tumor vascularization | enzyme time beyond which tissues become damaged and viability of extracted cells is inhibited ([2]; in vitro): exceeding 45 minutes | cells released from tissues ([2]; tissues digested for 30 minutes): mesothelial cells released by collagenase | cells released from tissues ([2]; tissues digested for 24 hours): release of cells with tumor morphology and highly refringent mesothelial cells | washing liquid, omentum, mesoderm and tumor implants after washing ([3]; Group 1: 370 U/mL): Hematic washing liquid, destruction of the omentum and mesoderm. Tumor fragments in the washing liquid. | washing liquid, omentum, mesoderm and tumor implants after washing ([3]; Group 2: 148 U/mL): Slightly hematic washing liquid, readily separable omentum and mesoderm. Solid tumor fragments are observed in the washing liquid. | washing liquid, omentum, mesoderm and tumor implants after washing ([3]; Group 3: 74 U/mL): Non-hematic washing liquid, readily separable omentum and mesoderm. Few implants are observed in the washing liquid but the accessibility of the tumor implants in the mesoderm and omentum is absolute. | washing liquid, omentum, mesoderm and tumor implants after washing ([3]; Group 4: 37 U/mL): Non-hematic washing liquid, readily separable omentum and mesoderm. No tumor implants observed in the washing liquid, but they are seen to be completely exposed in both the mesoderm and omentum. | IL4 in plasma vs PBS (cytokines and chemokines; anti-inflammatory cytokine): Insignificant increase | IL10 in plasma vs PBS (cytokines and chemokines; anti-inflammatory cytokine): Insignificant increase | levels of all the cytokines and chemokines between the 2 groups (cytokines and chemokines; at four months): normalized | G-CSF in plasma vs PBS (cytokines and chemokines; chemokines): no difference | GM-CSF in plasma vs PBS (cytokines and chemokines; chemokines): no difference | KC in plasma vs PBS (cytokines and chemokines; chemokines): no difference | M-MCF in plasma vs PBS (cytokines and chemokines; chemokines): no difference | MCP1 in plasma vs PBS (cytokines and chemokines; chemokines): significant increase | MIP3a in plasma vs PBS (cytokines and chemokines; chemokines): no difference | MIPla in plasma vs PBS (cytokines and chemokines; chemokines): no difference | RANTRES in plasma vs PBS (cytokines and chemokines; chemokines): no difference | VEGF in plasma vs PBS (cytokines and chemokines; chemokines): significant increase | IL12-p70 in plasma vs PBS (cytokines and chemokines; pro-inflammatory cytokine): Significant increase (p<0.01) | INF-gamma in plasma vs PBS (cytokines and chemokines; pro-inflammatory cytokine): no differences | TNF-alpha in plasma vs PBS (cytokines and chemokines; pro-inflammatory cytokine): Significant increase (p<0.01) | IL1a in plasma vs PBS (cytokines and chemokines; regulatory cytokine): no difference | IL1b in plasma vs PBS (cytokines and chemokines; regulatory cytokine): no difference | IL2 in plasma vs PBS (cytokines and chemokines; regulatory cytokine): significant increase (p<0.05) | IL5 in plasma vs PBS (cytokines and chemokines; regulatory cytokine): no difference | IL6 in plasma vs PBS (cytokines and chemokines; regulatory cytokine): no difference | IL7 in plasma vs PBS (cytokines and chemokines; regulatory cytokine): no difference | IL13 in plasma vs PBS (cytokines and chemokines; regulatory cytokine): no difference | IL17a in plasma vs PBS (cytokines and chemokines; regulatory cytokine): no difference | IL18 in plasma vs PBS (cytokines and chemokines; regulatory cytokine): significant increase (p<0.05) | collagenase residues in blood, MMP-1 ELISA (MMP-1): negative | adhesion tear pressure [4]: 188.26 millibar
